Values after ≈ are worked out from the molar mass of the structure shown. Structures can show the parent of a compound that is named as a salt. Where two headings read alike, the source gives them in different places.
Key:
[1] = system: Alcaligenes faecalis 0104002; assay: In vitro antibacterial activity, MIC (standard strain); type: cell-based
S. epidermidis IID 866 = assay: as above; type: cell-based; conditions: Staphylococcus epidermidis
S. pyogenes 3130 = assay: In vitro antibacterial activity, MIC (clinical isolates); type: cell-based; conditions: Streptococcus pyogenes, read-out: MIC
[2] = system: Citrobacter freundii IID 976; assay: In vitro antibacterial activity, MIC (standard strain); type: cell-based; conditions: IID976; Citrobacter freundii IID 976; 10^6 cells/ml; standard strain; read-out: MIC
S. pneumoniae 2054 = assay: In vitro antibacterial activity, MIC (clinical isolates); type: cell-based; conditions: Streptococcus pneumoniae; S. pneumoniae 2054; 10^6 cells/ml; clinical isolate; read-out: MIC
S. pyogenes 4372 = assay: as above; type: cell-based; conditions: Streptococcus pyogenes; S. pyogenes 4372; 10^6 cells/ml; clinical isolate; read-out: MIC
P. aeruginosa IFO 12689 = assay: In vitro antibacterial activity, MIC (standard strain); type: cell-based, Pseudomonas aeruginosa; conditions: Pseudomonas aeruginosa, IFO12689; P. aeruginosa IFO 12689; 10^6 cells/ml; standard strain; read-out: MIC
[3] = system: Bacteroides fragilis GM 7000; assay: as above; type: cell-based; conditions: GM7000; Bacteroides fragilis GM 7000; 10^6 cells/ml; standard strain; read-out: MIC
[4] = system: Fusobacterium varium KYA 8501; assay: as above; type: cell-based; conditions: Fusobacterium varium, KYA8501, Fusobacterium varium KYA 8501; 10^6 cells/ml; standard strain; read-out: MIC
S. agalactiae 4470 = assay: In vitro antibacterial activity, MIC (clinical isolates); type: cell-based; conditions: Streptococcus agalactiae; S. agalactiae 4470; 10^6 cells/ml; clinical isolate; read-out: MIC
[5] = system: Bacillus subtilis PCI 219; assay: In vitro antibacterial activity, MIC (standard strain); type: cell-based; conditions: PCI219
S. pneumoniae 3227 = assay: In vitro antibacterial activity, MIC (clinical isolates); type: cell-based; conditions: Streptococcus pneumoniae; S. pneumoniae 3227; 10^6 cells/ml; clinical isolate; read-out: MIC
B. fragilis 25285 = assay: In vitro antibacterial activity, MIC (standard strain); type: cell-based, Bacteroides fragilis; conditions: Bacteroides fragilis, 25285, B. fragilis 25285; 10^6 cells/ml; standard strain; read-out: MIC
E. coli ATCC 10536 = assay: as above; type: cell-based; conditions: Escherichia coli, ATCC10536
P. aeruginosa IID 1210 = assay: as above; type: cell-based; conditions: Pseudomonas aeruginosa, IID1210; P. aeruginosa IID 1210; 10^6 cells/ml; standard strain; read-out: MIC
[6] = system: Staphylococcus aureus 209 P; assay: as above; type: cell-based
[7] = system: Morganella morganii IID 602; assay: as above; type: cell-based; conditions: IID602; Morganella morganii IID 602; 10^6 cells/ml; standard strain; read-out: MIC
[8] = system: Enterobacter cloacae IID 977; assay: as above; type: cell-based; conditions: Enterobacter cloacae, IID977, Enterobacter cloacae IID 977; 10^6 cells/ml; standard strain; read-out: MIC
[9] = system: S. aureus IID 670 (Terajima); assay: as above; type: cell-based, Staphylococcus aureus; conditions: Staphylococcus aureus
E. coli ML 4707 = assay: as above; type: cell-based; conditions: Escherichia coli, ML4707; E. coli ML 4707; 10^6 cells/ml; standard strain; read-out: MIC
Shigella sonnei IID 969 = assay: as above; type: cell-based; conditions: IID969, 10^6 cells/ml
Procedure: Experiment-1 In vitro antibacterial activity
The in vitro antibacterial activity against gram-positive and gram-negative bacteria has been investivated.
The minimum inhibitory concentration (MIC) was determined in accordance with the method recommended by Japan Society of Chemotherapy.

S. faecalis IID 682 = assay: as above; type: cell-based; conditions: Enterococcus faecalis, IID682; S. faecalis IID 682; 10^6 cells/ml; standard strain; read-out: MIC
[10] = system: Clostridium perfringens KYA 13123; assay: microbe, parasite or virus in culture; type: cell-based; conditions: KYA13123
[11] = Alcaligenes faecalis, 0104002, Alcaligenes faecalis 0104002, 10^6 cells/ml, standard strain, read-out: MIC
[12] = IID866, S. epidermidis IID 866, 10^6 cells/ml, standard strain, read-out: MIC
[13] = Bacillus subtilis PCI 219, 10^6 cells/ml, standard strain, read-out: MIC
[14] = E. coli ATCC 10536, 10^6 cells/ml, standard strain, read-out: MIC
[15] = Staphylococcus aureus 209 P, 10^6 cells/ml, standard strain, read-out: MIC
[16] = IID670, S. aureus IID 670 (Terajima), 10^6 cells/ml, standard strain, read-out: MIC

Row | Compound | MIC [1, 11] [mg/L] | MIC (S. epidermidis IID 866; [12]) [mg/L] | MIC (S. pyogenes 3130) [mg/L] | MIC [2] [mg/L] | MIC (S. pneumoniae 2054) [mg/L] | MIC (S. pyogenes 4372) [mg/L] | MIC (P. aeruginosa IFO 12689) [mg/L] | MIC [3] [mg/L] | MIC [4] [mg/L] | MIC (S. agalactiae 4470) [mg/L] | MIC [5, 13] [mg/L] | MIC (S. pneumoniae 3227) [mg/L] | MIC (B. fragilis 25285) [mg/L] | MIC (P. aeruginosa IID 1210) [mg/L] | MIC [7] [mg/L] | MIC [8] [mg/L] | MIC (E. coli ML 4707) [mg/L] | MIC (Shigella sonnei IID 969) [mg/L] | MIC (S. faecalis IID 682) [mg/L] | MIC [10] [mg/L] | also measured
1 | CCNCC1CCN(c2cc3c(cc2F)c(=O)c(C(=O)O)cn3C2CC2)C1.Cl (stereo not drawn) [Example 7, 1-Cyclopropyl-7-(3-ethylaminomethyl-1-pyrrolidinyl)-6-fluoro-1,4-dihydro-4-oxo-3-quinolinecarboxylic acid hydrochloride] | 1.56 | 0.05 | 0.2 | 0.1 | 0.39 | 0.2 | 3.13 | 25 | 12.5 | 0.39 | 0.025 | 0.39 | 25 | 3.13 | 0.39 | 0.39 | 0.05 | 0.05 | 0.39 | 0.2 | MIC (E. coli ATCC 10536; [14]): 0.05 mg/L; MIC [6, 15]: 0.1 mg/L; MIC [9, 16]: 0.1 mg/L
2 | CNCC1CCN(c2cc3c(cc2F)c(=O)c(C(=O)O)cn3C2CC2)C1 (stereo not drawn) [Example 9, 1-Cyclopropyl-6-fluoro-1,4-dihydro-7-(3-methylaminomethyl-l-pyrrolidinyl)-4-oxo-3-quinolinecarboxylic acid hydrochloride] | – | 0.1 | 0.1 | 0.2 | 0.78 | 0.2 | 3.13 | 25 | 25 | 0.39 | 0.05 | 0.39 | 25 | 3.13 | 0.78 | 0.39 | 0.1 | 0.1 | 0.39 | 1.56 | MIC ([1]; Alcaligenes faecalis, 0104002): 1.56 mg/L; MIC (E. coli ATCC 10536; [14]): 0.1 mg/L; MIC [6, 15]: 0.2 mg/L; MIC [9, 16]: 0.2 mg/L
3 | CCCNCC1CCN(c2c(F)cc3c(=O)c(C(=O)O)cn(C4CC4)c3c2F)C1 (stereo not drawn) [Example 10, 1-Cyclopropyl-6,8-difluoro-1,4-dihydro-4-oxo-7-(3-n-propylaminomethyl-l-pyrrolidinyl)-3-quinolinecarboxylic acid hydrochloride] | 0.78 | 0.1 | 0.2 | 0.05 | 0.78 | 0.39 | 3.13 | 1.56 | 6.25 | 0.39 | 0.0125 | 0.2 | 0.78 | 3.13 | 0.025 | 0.2 | 0.2 | 0.025 | 0.39 | 0.39 | MIC (E. coli ATCC 10536; [14]): 0.1 mg/L; MIC [6, 15]: 0.05 mg/L; MIC [9, 16]: 0.05 mg/L
4 | CC(C)NCC1CCN(c2c(F)cc3c(=O)c(C(=O)O)cn(C4CC4)c3c2F)C1.Cl (stereo not drawn) [Example 11, 1-Cyclopropyl-6,8-difluoro-1,4-dihydro-7-(3-isopropylaminomethyl-1-pyrrolidinyl)-4-oxo-3-quinolinecarboxylic acid hydrochloride] | 1.56 | 0.05 | 0.2 | 0.1 | 0.2 | 0.2 | 3.13 | 1.56 | 3.13 | 0.2 | 0.025 | 0.39 | 0.78 | 3.13 | 0.39 | 0.39 | 0.05 | 0.05 | 0.39 | 0.2 | MIC (E. coli ATCC 10536; [14]): 0.05 mg/L; MIC [6, 15]: 0.05 mg/L; MIC [9, 16]: 0.05 mg/L
5 | NCC1CCN(c2c(F)cc3c(=O)c(C(=O)O)cn(C4CC4)c3c2Br)C1 (stereo not drawn) [Example 15, 7-(3-Aminomethyl-l-pyrrolidinyl)-8-bromo-l-cyclopropyl-6-fluoro-1,4-dihydro-4-oxo-3-quinolinecarboxylic acid] | 0.2 (≈ 0.471 µM) | – | 0.05 (≈ 0.118 µM) | 0.025 (≈ 0.0589 µM) | 0.1 (≈ 0.236 µM) | 0.05 (≈ 0.118 µM) | 0.78 (≈ 1.84 µM) | 0.1 (≈ 0.236 µM) | 0.39 (≈ 0.919 µM) | 0.05 (≈ 0.118 µM) | – | 0.05 (≈ 0.118 µM) | ≤ 0.05 | 0.78 (≈ 1.84 µM) | 0.1 (≈ 0.236 µM) | 0.05 (≈ 0.118 µM) | 0.025 (≈ 0.0589 µM) | 0.0125 (≈ 0.0295 µM) | 0.1 (≈ 0.236 µM) | 0.1 (≈ 0.236 µM) | MIC (S. epidermidis IID 866; IID866): 0.0125 mg/L (≈ 0.0295 µM); MIC ([5]; Bacillus subtilis): 0.0125 mg/L (≈ 0.0295 µM); MIC (E. coli ATCC 10536): 0.0125 mg/L (≈ 0.0295 µM); MIC ([6]; Staphylococcus aureus, 209P): 0.0125 mg/L (≈ 0.0295 µM); MIC ([9]; IID670): 0.0125 mg/L (≈ 0.0295 µM)
6 | CNCC1CCN(c2c(F)cc3c(=O)c(C(=O)O)cn(C4CC4)c3c2Br)C1 (stereo not drawn) [Example 16, 8-Bromo-1-cyclopropyl-6-fluoro-1,4-dihydro-7-(3-methylaminomethyl-l-pyrrolidinyl)-4-oxo-3-quinolinecarboxylic acid] | 0.39 (≈ 0.89 µM) | 0.025 (≈ 0.057 µM) | 0.05 (≈ 0.114 µM) | 0.05 (≈ 0.114 µM) | 0.05 (≈ 0.114 µM) | 0.05 (≈ 0.114 µM) | 1.56 (≈ 3.56 µM) | 0.2 (≈ 0.456 µM) | 0.39 (≈ 0.89 µM) | 0.05 (≈ 0.114 µM) | 0.0125 (≈ 0.0285 µM) | 0.05 (≈ 0.114 µM) | 0.1 (≈ 0.228 µM) | 1.56 (≈ 3.56 µM) | 0.1 (≈ 0.228 µM) | 0.1 (≈ 0.228 µM) | 0.025 (≈ 0.057 µM) | 0.025 (≈ 0.057 µM) | 0.05 (≈ 0.114 µM) | 0.1 (≈ 0.228 µM) | MIC (E. coli ATCC 10536; [14]): 0.025 mg/L (≈ 0.057 µM); MIC [6, 15]: 0.0125 mg/L (≈ 0.0285 µM); MIC [9, 16]: 0.025 mg/L (≈ 0.057 µM)

Reference: EP0183129A1, “Quinolonecarboxylic acid derivatives” (KYORIN PHARMACEUTICAL CO., LTD., priority 1984, dated 1986)
